From patent publication US20120100204A1, “TGF-Beta Stimulating Agent Compositions and Combinations” (TCP INNOVATIONS LTD, priority 2007, published 2012)

Tests used:
tgfb1 mRNA = tgfb1 mRNA level by quantitative PCR in human aortic vascular smooth muscle cells; assay type: cell-based; settings: 24 hrs
Experimental: (1995) Cardiovasc. Res. 29:848-55). […] The cells were then incubated for either 24 hrs or 72 hrs depending on the experiment. All treatment conditions were established in triplicate. The level of mRNA for tgfb1, tgfb2 and tgfb3 were estimated by quantitative PCR. The media was removed and RNA was carefully prepared using the Ambion RNAqueous4PCR kit (Ambion#1914) in accordance with the manufacturer's instructions. The purity of the RNA and the quantity was assessed spectrophotometrically. […] This analysis results in both a gel-like image as well as electrophoretic data. Indications of RNA degradation are: (a) decreasing ratio of ribosomal bands (b) additional peaks bellow the ribosomal bands (c) Decrease in overall RNA signal (d) shift towards shorter fragments. All the mRNA samples used in the experiments presented here passed this RNA quality control step. Next, the RNA was converted to cDNA using the ABI High-Capacity cDNA Archive Kit, in accordance with manufacturer's instructions. […] Samples were vortexed to ensure thorough mixing. cDNA was aliquoted into ABI 384 well plates using a multi-channel pipette, 4.5 μl of sample into each well. Samples were assayed in triplicate (that is, nine determinations in total were made for each condition, being three separate assays on each of three replicate culture wells). The assay mix and Universal Master Mix were prepared and aliquoted across the 384 well plates 5.5 μl in each well, using a single channel pipette. The final composition of each reaction (10 μl) being: […] Universal Master Mix=5 μl; cDNA=4.5 μl. The plates were then heat sealed using Abgene clear seal strong plastic heat seals, and then cycled and scanned using the ABI 9700HT under the following conditions: 95° C. for 10 minutes to activate the AmpliTaq GOLD, then 40 cycles of: 95° C. for 15 sec (Denaturation), 60° C. for 60 […]). […] Quantitative PCR was performed using several primer/probe sets. […] We used both commercially available primer/probe sets (ABI Taqman pre-validated assays), using both available sets in the ABI database for tgfb1 and tgfb2, as well as the single available set for tgfb3. In addition, we used our own manual design probe/primer set for each of tgfb1, tgfb2 and tgfb3. For normalisation, we used TATA-binding protein (TBP) as the primary normalisation standard, with GAPDH as an alternative for confirmation, using ABI Taqman pre-validated probe/primer sets. […] Neither TBP nor GAPDH mRNA levels are affected by TGF-beta and are therefore equally suitable, however TBP was selected as the primary normalisation standard because the absolute level of mRNA in most cell types is similar to that of the TGF-beta isoforms, resulting in lower errors on calculating the ratio, and improving the power of the experiment. In all quantitative PCR experiments, several additional controls were included: firstly, a control for each sample is run with no reverse transcription to ensure the mRNA sample is not contaminated with genomic DNA (although the manual design probe/primer sets were all selected to cross an exon/exon boundary, ensuring no detectable amplicon is produced from genomic DNA templates). […] This control ensures that the results for the unknown samples are obtained in the linear range of the amplification process, and are therefore truly quantitative. Failure of either control led to the repeat of the entire experiment. Typically, the half maximal signal was obtained after 20-30 amplification cycles. […]

TGF-beta1 protein = assay: total TGF-beta1 protein in conditioned medium, Quantikine ELISA; assay type: cell-based, human; settings: 24 hrs or 72 hrs; any dose tested (Tamoxifen up to 33 μM, aspirin up to 100 μM)
Experimental: The cells were cultured (37° C.; 5% CO2) in DMEM+20% foetal calf serum (FCS), and subcultured every 5 days at 1:2 dilution, using 0.02% trypsin/EDTA (Gibco).
For the experiments, the cells were subcultured into 12-well cluster plates at 1×10^5 cells/cm^2, and allowed to grow for 24 hrs. […] The cells were then incubated for either 24 hrs or 72 hrs depending on the experiment. All treatment conditions were established in triplicate.
TGF-beta1 protein levels in the medium was measured using the Quantikine ELISA kit (R&D Systems) in accordance with the manufacturer's instructions, except that the medium was pre-activated by addition of an equal volume of 2.7M HCl 10M Urea, and then neutralised by addition of the same volume of 1M HEPES 2M NaOH. […] Note that TGF-beta proteins are well known to interact with many different matrix proteins and cell surface proteins, including proteoglycans, low affinity type III receptors, fibronectin and collagen, and consequently the amount of TGF-beta protein in the medium may not represent the total amount synthesised by the cells, and a negative result in the assay for TGF-beta protein may represent a false negative.

TGF-beta1 = TGF-beta1 protein in the blood vessel wall, quantitative immunofluoresence; assay type: in vivo; settings: apoE mice; for TGF-b1 staining: Aspirin 30 mg/kg/day, mean ± SD
Excerpt: (§1) Adult male apoE-deficient mice, back-crossed onto a C57B16 background for at least five generations, were randomised into groups of eight animals at 12 weeks of age, such that each group had similar average body weight. […] The amount of food eaten and the body weight of each mouse was monitored daily for the first week, and once per week thereafter. After 12 weeks of treatment, the mice were sacrificed by CO2 asphyxiation, and heart & lung blocks were excised, embedded in Cryo-M-bed (Bright Instruments, UK) without fixation and snap frozen in liquid nitrogen.
(§2) Sections were then prepared from the aortic root according to the Paigen Strategy (a defined sequence of cutting sections which allow reproducible comparison between animals; see for example Grainger et al. (1995) Nature Med. 1:1067-72 and the references therein). 4 μm crysosections were cut using a motordriven cryotome (Bright Instruments) and collected onto poly-L-lysine coated glass microscope slides, then fixed in ice-cold acetone for 90 secs, allowed to air dry and stored at −20° C. until analysed.

fibrin(ogen) = fibrin(ogen) deposition into the blood vessel wall, quantitative immunofluoresence
Excerpt: as §1, §2
The level of fibrin or fibrinogen deposited into the vessel wall was also estimated by quantitative immunofluoresence, using a method identical to that for TGF-beta1, except that the primary antibody was sheep anti-fibrin(ogen) (Chemicon; 2 μg/ml) and the secondary antibody was donkey anti-sheep IgG minimum cross-reactivity, FITC labelled (Jackson Immunoresearch), as previously described (Thromb Res. 2001 Apr. 1; 102(1):71-80).
Adult male apoE-deficient mice were treated, in groups of 8, with fish oil (Seven Seas, UK), aspirin or both agents simultaneously from 12 weeks of age until 24 weeks of age, exactly as described in Example 2.
The levels of TGF-beta1 and fibrin(ogen) in the vessel wall were determined by quantitative immunofluoresence, exactly as described in example 2.

Row | Compound | Level of mRNA, estimated by qPCR: tgfb1 (tgfb1 mRNA; 10 μM A) [fold-change] | Level of mRNA, estimated by qPCR: tgfb1 (tgfb1 mRNA; 33 μM A) [fold-change] | Level of mRNA, estimated by qPCR: tgfb1 (tgfb1 mRNA; 100 μM A) [fold-change] | effect on the mRNA levels of any of the three isoforms of TGF-beta (tgfb1 mRNA; any concentration tested (up to 100 μM)) | effect on total TGF-beta1 protein levels in conditioned medium (TGF-beta1 protein) | TGF-b1 staining (TGF-beta1; 12 weeks, TMX 1 mg/kg/day) [AU] | level of TGF-beta1 in the blood vessel wall (in words) (TGF-beta1; Example 2) | level of TGF-beta1 in the blood vessel wall (in words) (TGF-beta1; Example 3) | TGF-b1 staining (TGF-beta1; Fish oils 100 mg/kg/day) [AU] | effect on fibrin(ogen) deposition into the blood vessel wall (in words) (fibrin(ogen); mouse, in vivo) | Level of mRNA, estimated by qPCR: tgfb1 (tgfb1 mRNA; 3.3 μM T, normalised to TBP, vs vehicle) [fold-change] | Level of mRNA, estimated by qPCR: tgfb1 (tgfb1 mRNA; 10 μM T) [fold-change] | Level of mRNA, estimated by qPCR: tgfb1 (tgfb1 mRNA; 33 μM T, listed as T) [fold-change] | Level of mRNA, estimated by qPCR: tgfb1 (tgfb1 mRNA; 33 μM T, listed as TMX) | doses that significantly increased tgfb1 mRNA (tgfb1 mRNA) [µM] | Fibrin(ogen) staining (fibrin(ogen); apoE mice, 12 weeks, TMX 1 mg/kg/day, Aspirin 30 mg/kg/day, mean ± SD) [AU] | increase of fibrin(ogen) deposition into the vessel wall (fibrin(ogen); apoE mice, Tamoxifen 1 mg/kg/day, vs control) [%]
1 | CC(=O)Oc1ccccc1C(=O)O [Aspirin, acetylsalicylic acid] | 1.01 ± 0.04 | 0.93 ± 0.11 | 1.06 ± 0.08 | no statistically significant effect | no statistically significant effect | 65 ± 11 | no effect | no effect | 65 ± 11 | significantly reduced |  |  |  |  |  |  | 
2 | CC/C(=C(\c1ccccc1)c1ccc(OCCN(C)C)cc1)c1ccccc1 [Tamoxifen] |  |  |  |  | no statistically significant effect | 94 ± 9 | increased |  |  |  | 0.95 ± 0.16 | 1.27 ± 0.09 | 1.41 ± 0.08 | approximately 1.4 fold-change | ≥ 10 | 151 ± 7 | 23
